Test system: MCF7 multi-cell spheroids with HUVEC/MSC, viability
Assay: Anticancer human tumor MCF7 cell line growth inhibition [IpAb];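 also: spheroids exposed to agents for seven days before readout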
Details: for IC50: curve of first compound; for viability, T/C: stronger effect = lower value
Procedure, shortened: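 Multi-cell spheroids of 60% tumour cells, 25% HUVEC and 15% MSC in ultra-low-attachment U-bottom wells, treated with agents combined with ipatasertib or abemaciclib. Half-log ranges top out near clinical Cmax, or 10 microM when Cmax is unknown.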

[1] = second compound 0.1 µM, first compound 0.0316 µM
[2] = second compound 0.1 µM, first compound 0.1 µM
[3] = second compound 0.1 µM, first compound 0.316 µM
[4] = second compound 0.1 µM, first compound 1 µM
[5] = second compound 0.1 µM, first compound 3.16 µM
[6] = second compound 0.1 µM, first compound 10 µM
[7] = second compound 0.316 µM, first compound 0.0316 µM
[8] = second compound 0.316 µM, first compound 0.1 µM
[9] = second compound 0.316 µM, first compound 0.316 µM
[10] = second compound 0.316 µM, first compound 1 µM
[11] = second compound 0.316 µM, first compound 3.16 µM
[12] = second compound 0.316 µM, first compound 10 µM
[13] = second compound 1 µM, first compound 0.0316 µM
[14] = second compound 1 µM, first compound 0.1 µM
[15] = second compound 1 µM, first compound 0.316 µM
[16] = second compound 1 µM, first compound 1 µM
[17] = second compound 1 µM, first compound 3.16 µM
[18] = second compound 1 µM, first compound 10 µM
[19] = second compound 0.01 µM, first compound 0.0316 µM
[20] = second compound 0.01 µM, first compound 0.1 µM
[21] = second compound 0.01 µM, first compound 0.316 µM
[22] = second compound 0.01 µM, first compound 1 µM
[23] = second compound 0.01 µM, first compound 3.16 µM
[24] = second compound 0.01 µM, first compound 10 µM
[25] = second compound 0.0316 µM, first compound 0.0316 µM
[26] = second compound 0.0316 µM, first compound 0.1 µM
[27] = second compound 0.0316 µM, first compound 0.316 µM
[28] = second compound 0.0316 µM, first compound 1 µM
[29] = second compound 0.0316 µM, first compound 3.16 µM
[30] = second compound 0.0316 µM, first compound 10 µM

## Cn1nccc1Nc1nccc(-c2ccn(C(CO)c3ccc(Cl)c(F)c3)c(=O)c2)n1 (stereo not given) + CC(C)NCC(C(=O)N1CCN(c2ncnc3c2C(C)CC3O)CC1)c1ccc(Cl)cc1
Second compound 0.1 µM
  IC50: > 10 µM
Second compound 0.316 µM
  IC50: > 10 µM
Second compound 1 µM
  IC50: > 10 µM
Second compound 3.16 µM
  IC50: > 10 µM
Second compound 10 µM
  IC50: < 0.0316 µM
[1]
  viability, T/C: 82.7%
[2]
  viability, T/C: 85.4%
[3]
  viability, T/C: 91%
[4]
  viability, T/C: 116%
[5]
  viability, T/C: 113%
[6]
  viability, T/C: 98.5%
[7]
  viability, T/C: 72.7%
[8]
  viability, T/C: 77.4%
[9]
  viability, T/C: 78.3%
[10]
  viability, T/C: 77.6%
[11]
  viability, T/C: 99.6%
[12]
  viability, T/C: 76.8%
[13]
  viability, T/C: 65.2%
[14]
  viability, T/C: 66.7%
[15]
  viability, T/C: 74.4%
[16]
  viability, T/C: 74.6%
[17]
  viability, T/C: 77.7%
[18]
  viability, T/C: 77.5%
Second compound 3.16 µM, first compound 0.0316 µM
  viability, T/C: 51.9%
Second compound 3.16 µM, first compound 0.1 µM
  viability, T/C: 55%
Second compound 3.16 µM, first compound 0.316 µM
  viability, T/C: 52.1%
Second compound 3.16 µM, first compound 1 µM
  viability, T/C: 56.2%
Second compound 3.16 µM, first compound 3.16 µM
  viability, T/C: 64.2%
Second compound 3.16 µM, first compound 10 µM
  viability, T/C: 72.6%
Second compound 10 µM, first compound 0.0316 µM
  viability, T/C: 43.8%
Second compound 10 µM, first compound 0.1 µM
  viability, T/C: 41%
Second compound 10 µM, first compound 0.316 µM
  viability, T/C: 38.4%
Second compound 10 µM, first compound 1 µM
  viability, T/C: 49.4%
Second compound 10 µM, first compound 3.16 µM
  viability, T/C: 44.2%
Second compound 10 µM, first compound 10 µM
  viability, T/C: 44.2%

## CCCS(=O)(=O)Nc1ccc(F)c(C(=O)c2c[nH]c3ncc(-c4ccc(Cl)cc4)cc23)c1F + CCN1CCN(Cc2ccc(Nc3ncc(F)c(-c4cc(F)c5nc(C)n(C(C)C)c5c4)n3)nc2)CC1
Second compound 0.01 µM
  IC50: > 10 µM
Second compound 0.0316 µM
  IC50: > 10 µM
Second compound 0.1 µM
  IC50: > 10 µM
Second compound 0.316 µM
  IC50: > 10 µM
Second compound 1 µM
  IC50: 8.1 µM
[19]
  viability, T/C: 97.8%
[20]
  viability, T/C: 106%
[21]
  viability, T/C: 97.5%
[22]
  viability, T/C: 90.1%
[23]
  viability, T/C: 93.4%
[24]
  viability, T/C: 84%
[25]
  viability, T/C: 89.6%
[26]
  viability, T/C: 96.7%
[27]
  viability, T/C: 91.7%
[28]
  viability, T/C: 91.9%
[29]
  viability, T/C: 85.3%
[30]
  viability, T/C: 70.1%
[1]
  viability, T/C: 101%
[2]
  viability, T/C: 96.8%
[3]
  viability, T/C: 100%
[4]
  viability, T/C: 99.4%
[5]
  viability, T/C: 88.4%
[6]
  viability, T/C: 77.3%
[7]
  viability, T/C: 98.3%
[8]
  viability, T/C: 103%
[9]
  viability, T/C: 94%
[10]
  viability, T/C: 101%
[11]
  viability, T/C: 93.1%
[12]
  viability, T/C: 76.5%
[13]
  viability, T/C: 101%
[14]
  viability, T/C: 94.7%
[15]
  viability, T/C: 92.5%
[16]
  viability, T/C: 87.8%
[17]
  viability, T/C: 72.9%
[18]
  viability, T/C: 44.5%

## CC(C)(C)c1cnc(CSc2cnc(NC(=O)C3CCNCC3)s2)o1 + CCN1CCN(Cc2ccc(Nc3ncc(F)c(-c4cc(F)c5nc(C)n(C(C)C)c5c4)n3)nc2)CC1
Second compound 0.01 µM
  IC50: 0.0744 µM
Second compound 0.0316 µM
  IC50: 0.067 µM
Second compound 0.1 µM
  IC50: 0.0647 µM
Second compound 0.316 µM
  IC50: 0.0518 µM
Second compound 1 µM
  IC50: 0.0172 µM
Second compound 0.01 µM, first compound 0.00949 µM
  viability, T/C: 112%
Second compound 0.01 µM, first compound 0.03 µM
  viability, T/C: 93%
Second compound 0.01 µM, first compound 0.0949 µM
  viability, T/C: 38.9%
Second compound 0.01 µM, first compound 0.3 µM
  viability, T/C: 23.7%
Second compound 0.01 µM, first compound 0.949 µM
  viability, T/C: 27.4%
Second compound 0.01 µM, first compound 3 µM
  viability, T/C: 29.8%
Second compound 0.0316 µM, first compound 0.00949 µM
  viability, T/C: 102%
Second compound 0.0316 µM, first compound 0.03 µM
  viability, T/C: 97.8%
Second compound 0.0316 µM, first compound 0.0949 µM
  viability, T/C: 29.4%
Second compound 0.0316 µM, first compound 0.3 µM
  viability, T/C: 19.5%
Second compound 0.0316 µM, first compound 0.949 µM
  viability, T/C: 26.8%
Second compound 0.0316 µM, first compound 3 µM
  viability, T/C: 27.6%
Second compound 0.1 µM, first compound 0.00949 µM
  viability, T/C: 108%
Second compound 0.1 µM, first compound 0.03 µM
  viability, T/C: 99.7%
Second compound 0.1 µM, first compound 0.0949 µM
  viability, T/C: 25%
Second compound 0.1 µM, first compound 0.3 µM
  viability, T/C: 21.7%
Second compound 0.1 µM, first compound 0.949 µM
  viability, T/C: 26.9%
Second compound 0.1 µM, first compound 3 µM
  viability, T/C: 27.2%
Second compound 0.316 µM, first compound 0.00949 µM
  viability, T/C: 94.5%
Second compound 0.316 µM, first compound 0.03 µM
  viability, T/C: 72.3%
Second compound 0.316 µM, first compound 0.0949 µM
  viability, T/C: 21.3%
Second compound 0.316 µM, first compound 0.3 µM
  viability, T/C: 22.3%
Second compound 0.316 µM, first compound 0.949 µM
  viability, T/C: 27.1%
Second compound 0.316 µM, first compound 3 µM
  viability, T/C: 30.4%
Second compound 1 µM, first compound 0.00949 µM
  viability, T/C: 63%
Second compound 1 µM, first compound 0.03 µM
  viability, T/C: 37.8%
Second compound 1 µM, first compound 0.0949 µM
  viability, T/C: 19.6%
Second compound 1 µM, first compound 0.3 µM
  viability, T/C: 22.8%
Second compound 1 µM, first compound 0.949 µM
  viability, T/C: 27.5%
Second compound 1 µM, first compound 3 µM
  viability, T/C: 32%

## C=CCn1c(=O)c2cnc(Nc3ccc(N4CCN(C)CC4)cc3)nc2n1-c1cccc(C(C)(C)O)n1 + CCN1CCN(Cc2ccc(Nc3ncc(F)c(-c4cc(F)c5nc(C)n(C(C)C)c5c4)n3)nc2)CC1
Second compound 0.01 µM
  IC50: 0.485 µM
Second compound 0.0316 µM
  IC50: 0.561 µM
Second compound 0.1 µM
  IC50: 0.741 µM
Second compound 0.316 µM
  IC50: 0.965 µM
Second compound 1 µM
  IC50: 0.85 µM
[19]
  viability, T/C: 94.5%
[20]
  viability, T/C: 90.6%
[21]
  viability, T/C: 60.1%
[22]
  viability, T/C: 32.8%
[23]
  viability, T/C: 25.6%
[24]
  viability, T/C: 25.6%
[25]
  viability, T/C: 91.4%
[26]
  viability, T/C: 87.7%
[27]
  viability, T/C: 63.4%
[28]
  viability, T/C: 36.3%
[29]
  viability, T/C: 25.7%
[30]
  viability, T/C: 23.7%
[1]
  viability, T/C: 113%
[2]
  viability, T/C: 83.5%
[3]
  viability, T/C: 71%
[4]
  viability, T/C: 42.6%
[5]
  viability, T/C: 29%
[6]
  viability, T/C: 36.7%
[7]
  viability, T/C: 109%
[8]
  viability, T/C: 109%
[9]
  viability, T/C: 88%
[10]
  viability, T/C: 49%
[11]
  viability, T/C: 37.9%
[12]
  viability, T/C: 36.8%
[13]
  viability, T/C: 88%
[14]
  viability, T/C: 94%
[15]
  viability, T/C: 87.1%
[16]
  viability, T/C: 43.9%
[17]
  viability, T/C: 41.6%
[18]
  viability, T/C: 42.1%
